Earlier results in patent US4150121A, “Kinin containing injection composition” (THERA Gesellschaft fur Patentverwertung mbH, priority 1976, dated 1979).
Where a SMILES comes first, the peptide text is derived from it.

Conditions: intracutaneous injection

Molecule	amount causing vehement pain reactions
NC(N)=NCCC[C@H](NC(=O)[C@H](Cc1ccccc1)NC(=O)[C@@H]1CCCN1C(=O)[C@H](CO)NC(=O)[C@H](Cc1ccccc1)NC(=O)CNC(=O)[C@@H]1CCCN1C(=O)[C@@H]1CCCN1C(=O)[C@@H](N)CCCN=C(N)N)C(=O)O [Bradykinin, (NH2) arginine - proline - proline -glycine - phenylalanine - serine - proline - phenylalanine - arginine (COOH)] (H-RPPGFSPFR-OH)	about 0.1 microgram in 1 milliliter of solution
kallidin: decapeptide kinin: Brady kinin extended at the amino end by an additional lysine residue	about 0.1 microgram in 1 milliliter of solution
